Results reported in patent US20220273765A1, “TOPICAL FORMULATION” (Follicum AB, priority 2019, published 2022).
Like-named read-outs stand apart in the source and are kept apart here. One block for each compound: values may come before it. No end group written: not given here.

Experiments:
[1] = Solubility of FOL-005 in vehicle excipients and artificial sebum (HPLC); type: physicochemical
Procedure: The testing was performed by charging 0.1% (w/w) of FOL-005 together with 99.90% excipient. […] The mixtures were stirred with magnetic stirrer for 2 hours. If particles of FOL-005 remained, the mixture was centrifuged at 14000 rpm or 10000 rpm (artificial sebum) for 5 minutes and the supernatant was withdrawn for analysis. The concentration of FOL-005 was determined by HPLC analysis in all batches.

[2] = test system: C57BL/6 mice in stable telogen phase; assay: Hair growth promotion efficacy in C57BL/6 mouse model by topical route; type: in vivo; settings: 5% solution, 50 μL/cm2 topically twice daily, 4 weeks + 1 week observation
Procedure: C57Bl6 mice in stable telogen phase (age 6-9 weeks) were carefully clipped. Topical formulation of FOL-005 at three different strengths and placebo was applied at the clipped area once daily, 5 days per week until day 26. For comparison Minoxidil was administered to one group twice daily, 5 days per week until day 26.
The present study was conducted to evaluate the hair growth promotion efficacy of FOL-005 in C57BL/6 mouse model by topical route of administration. Male C57BL/6 mice in stable telogen phase (resting phase) of hair growth cycle were used. The hair on the dorsal back of the animals was clipped and the area was treated with FOL-005 topical formulation, placebo formulation or commercially available Minoxidil 5%.
Three formulations of FOL-005 (High dose—0.5%, Medium dose—0.05% and Low dose—0.005%) along with placebo were screened for hair growth promotion efficacy by applying 50 μL/cm2 on the dorsal clipped skin of animals in the respective groups. The application regimen was total of 4 weeks (5 days/week) followed by 1 week of observation period. […] After completion of observation period, it was observed that FOL-005 formulation led to hair growth promotion efficacy in a dose response manner. […] Visual melanogenesis was also observed in the peeled skin of 3/7 animals, 2/7 animals and 1/7 animal in the High, Medium and Low dose respectively. […]

[3] = sodium salt, in PBS buffer pH 7.4, room temperature

solubility at 2 h ([1]; 0.5% Cithrol in paraffin oil, sodium salt, in 0.5% Cithrol in paraffin oil, room temperature, read-out: FOL-005 solubility): 10 µg/mL | solubility at 2 h ([1]; 10% glucose in water, in 10% Glucose in water, room temperature, read-out: FOL-005 solubility): > 1010 µg/mL | solubility of FOL-005 in 10% glucose solution ([1]; 10% glucose solution): above 4.38 % (w/w) | solubility at 2 h ([1]; 10% mannitol in water, in 10% Mannitol in water, room temperature, read-out: FOL-005 solubility): > 1040 µg/mL | solubility at 2 h ([1]; 10% sucrose in water, in 10% Sucrose in water, room temperature, read-out: FOL-005 solubility): > 1040 µg/mL | solubility at 2 h ([1]; 30% glucose in water, in 30% Glucose in water, room temperature, read-out: FOL-005 solubility): > 1070 µg/mL | solubility at 2 h ([1]; 30% sucrose in water, in 30% Sucrose in water, room temperature, read-out: FOL-005 solubility): > 1040 µg/mL | solubility at 2 h ([1]; PBS buffer, pH 7.4, sodium salt, in PBS buffer pH 7.4, room temperature, read-out: FOL-005 solubility): > 1000 µg/mL | solubility at 2 h ([1]; artificial sebum, sodium salt, in artificial sebum, 37° C., read-out: FOL-005 solubility): 270 µg/mL | Observation ([1]; in 10% Glucose in water, room temperature): soluble | Observation ([1]; in 10% Mannitol in water, room temperature): soluble | Observation ([1]; in 10% Sucrose in water, room temperature): soluble | Observation ([1]; in 30% Glucose in water, room temperature): soluble | Observation ([1]; in 30% Sucrose in water, room temperature): soluble | Observation ([1]; in lactic acid, room temperature): soluble | solubility at 2 h ([1]; lactic acid, in lactic acid, room temperature, read-out: FOL-005 solubility): > 1170 µg/mL | FOL-005 solubility [1, 3]: >980 µg/mL | Observation [1, 3]: soluble | solubility at 2 h ([1]; sugar solutions of glucose, mannitol and sucrose, sodium salt, sugar solutions of glucose, mannitol and sucrose, room temperature, read-out: solubility in sugar solutions): > 1000 µg/mL
Compound: VDTYDGDISVVYGLR [FOL-005]

Compound: Nc1cc(N2CCCCC2)nc(N)[n+]1[O-] [Minoxidil]
Anagen induction followed by hair growth [2]: 4/5 | Visual melanogenesis in the peeled skin [2]: 4/5
